Test system: male and female Sprague–Dawley rats
Assay: 90-day subchronic oral gavage toxicity study
Assay type: in vivo, rat
Conditions: male
Method: Subchronic (90-day) studies were performed in accordance with current U.S. EPA’s Toxic Substances Control Act Good Laboratory Practice (GLP) Standards, with the following two general exceptions to the GLP guidelines: Analysis of the dose formulations was conducted according to RTI-approved Standard Operating Procedures, and corn oil (the vehicle) was not characterized (certificate of analysis from the vendor is available in the appendices to the final reports). Male and female Sprague–Dawley rats (five dose levels plus a control, n = 10/sex/dose group, corn oil vehicle dose volume of 3 mL/kg; oral gavage) were used in these studies, and the rats were euthanized on SD 91. The dose levels for PFHI were 0, 12.5, 25, 50, 100, and 200 mg/kg-day. The dose levels for MHFPK were 0, 18.8, 37.5, 75, 150, and 300 mg/kg-day. The dose levels for PFNAC were 0, 0.1, 0.3, 1.0, 3.0, and 10 mg/kg-day for male rats and 0, 0.3, 1.0, 3.0, 10, and 30 mg/kg-day for female rats. For CTFPA, the dose levels were 0, 1.9, 3.8. 7.5, 15, and 30 mg/kg-day for male rats and 0, 6.3, 12.5, 25, 50, and 100 mg/kg-day for female rats. For each PFAS, three batches of dosing solution were prepared. The time between the batch preparation of the dosing solutions ranged between 29 and 39 days. Blood samples were collected from all the rats at termination for serum chemistry, hematology, coagulation, and the analysis of the parent PFAS chemical in the plasma. In vivo data collection and further detail on the endpoints examined postmortem are described below.
The rats were observed twice daily for morbidity and mortality throughout the study period. At least once prior to randomization to test groups and weekly thereafter, the rats were physically examined, and bodyweights were obtained. Feed consumption was quantified weekly starting on SD 1.
Neurotoxicity was evaluated using the functional observational battery (FOB) and measuring locomotor activity (LMA) 2–4 h post dosing on SDs 78–80 and 80–84, respectively. For both the 14- and 90-day studies, an ophthalmologic examination was conducted prior to randomization and near the end of the study, using indirect ophthalmoscopy and slit–lamp biomicroscopy (as needed) after the administration of a mydriatic solution.
Hematology, biochemistry, and coagulation endpoints were measured at the termination of the study. A Siemens Advia 2120i hematology analyzer (Siemens Healthineers, Erlangen, Germany) was used to measure (or calculate) the parameters related to the complete blood count, leukocyte differential count, and reticulocyte count. The hematology parameters are listed and described in Table 2. The prothrombin time […] and activated partial thromboplastin time (APTT) were measured using an Instrumentation Laboratory (Bedford, MA, USA) ACL Elite Pro coagulation analyzer (laser–nephelometric centrifugal method).
At necropsy, the rats were visually examined for external abnormalities and organ weights (absolute and relative to the BW and brain weight), which were recorded (paired organs weighed together). The tissues were preserved in 10% neutral buffered formalin (NBF), except for the ocular tissues, testes, and epididymides, which were preserved in modified Davidson’s fixative and later transferred to 10% NBF. Bone marrow smears were prepared from the femurs, and the slides were air-dried, fixed in methanol, stained, and stored at room temperature for possible future evaluation. The preserved tissues were embedded in paraffin, sectioned, stained with hematoxylin and eosin, and examined by a board-certified veterinary pathologist.
Statistical analysis was performed using Provantis™ Version 10 or greater (Instem LSS, Limited; Stone, Staffordshire, UK). Differences among the treatment groups compared to the control were evaluated using one-way analysis of variance (ANOVA) if the underlying assumptions of a normal distribution (Shapiro–Wilk test) and the homogeneity of the variance (Levene’s test) were satisfied. […]

`C=CC(=O)OCC(F)(F)C(F)(F)C(F)(F)C(F)(F)C(F)(F)C(F)(F)C(F)(F)C(F)F` [PFNAC, 1H,1H,9H-Perfluorononyl acrylate] was tested, and the “% Diff, Total Food Consumed” value (1.0 mg/kg-day) was 6.25%, the A/G (1.0 mg/kg-day) was 1.11±0.09 ratio and the ABNEUT (1.0 mg/kg-day) was 2.627±0.787 K/µL. The ABRETi (1.0 mg/kg-day) was 186.29±26.35 10^9/L, the ABSEOS (1.0 mg/kg-day) was 0.097±0.026 K/µL and the ALB (1.0 mg/kg-day) was 3.99 ± 0.25 g/dL. It also gave an ALPi (1.0 mg/kg-day) of 327.4±48.9 U/L, an APTT (1.0 mg/kg-day) of 12.70 s and a BUN (1.0 mg/kg-day) of 20.4 ± 2.6 mg/dL. It also gave a CHOL (1.0 mg/kg-day) of 62.6 ± 7.6 mg/dL, a GLOB (1.0 mg/kg-day) of 3.59 ± 0.18 g/dL and a GLUC (1.0 mg/kg-day) of 126.1 ± 10.3 mg/dL. The HCT (1.0 mg/kg-day) was 45.42±2.38%, the HGB (1.0 mg/kg-day) was 13.91 ± 0.69 g/dL and the “Kidney Weight” value (1.0 mg/kg-day) was 3.57 g. The “Kidney/Body Weight” value (1.0 mg/kg-day) was 0.61%, the “Kidney/Brain Weight” value (1.0 mg/kg-day) was 164% and the “Liver Weight” value (1.0 mg/kg-day) was 20.59 g. For the same molecule, the “Liver/Body Weight” value (1.0 mg/kg-day) was 3.48%, the “Liver/Brain Weight” value (1.0 mg/kg-day) was 949% and the MPV (1.0 mg/kg-day) was 7.90 ± 0.61 fL. The PT (1.0 mg/kg-day) was 15.56 s, the RBC (1.0 mg/kg-day) was 8.519±0.467 M/µL and the “Total BW change” value (1.0 mg/kg-day) was 314.97 g. The “Total Food Consumed” value (1.0 mg/kg-day) was 2357 g, the “% BW Gain” value (3.0 mg/kg-day) was 89.59% and the “% Diff, % BW Gain” value (3.0 mg/kg-day) was -11.27%. The “% Diff, Total BW change” value (3.0 mg/kg-day) was -11.64%, the “% Diff, Total Food Consumed” value (3.0 mg/kg-day) was 7.33% and the A/G (3.0 mg/kg-day) was 1.18±0.10 ratio. The ABNEUT (3.0 mg/kg-day) was 2.351±0.464 K/µL, the ABRETi (3.0 mg/kg-day) was 190.46±33.42 10^9/L and the ABSEOS (3.0 mg/kg-day) was 0.095±0.043 K/µL. It also gave an ALB (3.0 mg/kg-day) of 4.10 ± 0.25 g/dL, an ALPi (3.0 mg/kg-day) of 286.4±30.8 U/L and an APTT (3.0 mg/kg-day) of 12.24 s. It also gave a BUN (3.0 mg/kg-day) of 22.6 ± 3.6 mg/dL, a CHOL (3.0 mg/kg-day) of 68.5 ± 12.2 mg/dL and a GLOB (3.0 mg/kg-day) of 3.48 ± 0.13 g/dL. It also gave a GLUC (3.0 mg/kg-day) of 126.8 ± 13.8 mg/dL, an HCT (3.0 mg/kg-day) of 46.18±2.11% and an HGB (3.0 mg/kg-day) of 14.09 ± 0.70 g/dL. The “Kidney Weight” value (3.0 mg/kg-day) was 3.57 g, the “Kidney/Body Weight” value (3.0 mg/kg-day) was 0.65% and the “Kidney/Brain Weight” value (3.0 mg/kg-day) was 164%. The “Liver Weight” value (3.0 mg/kg-day) was 20.96 g, the “Liver/Body Weight” value (3.0 mg/kg-day) was 3.81% and the “Liver/Brain Weight” value (3.0 mg/kg-day) was 966%. For the same molecule, the MPV (3.0 mg/kg-day) was 7.79 ± 0.43 fL, the PT (3.0 mg/kg-day) was 14.98 s and the RBC (3.0 mg/kg-day) was 8.351±0.354 M/µL. The “Total BW change” value (3.0 mg/kg-day) was 266.69 g, the “Total Food Consumed” value (3.0 mg/kg-day) was 2381 g and the “% BW Gain” value (10 mg/kg-day) was 80.97%. The “% Diff, % BW Gain” value (10 mg/kg-day) was -19.80%, the “% Diff, Total BW change” value (10 mg/kg-day) was -20.93% and the “% Diff, Total Food Consumed” value (10 mg/kg-day) was 2.34%. For the same molecule, the A/G (10 mg/kg-day) was 1.15±0.10 ratio, the ABNEUT (10 mg/kg-day) was 2.413±0.948 K/µL and the ABRETi (10 mg/kg-day) was 172.74±32.27 10^9/L. It also gave an ABSEOS (10 mg/kg-day) of 0.101±0.025 K/µL, an ALB (10 mg/kg-day) of 3.90 ± 0.20 g/dL and an ALPi (10 mg/kg-day) of 315.8±44.0 U/L. For the same molecule, the APTT (10 mg/kg-day) was 12.57 s, the BUN (10 mg/kg-day) was 22.4 ± 2.6 mg/dL and the CHOL (10 mg/kg-day) was 68.0 ± 15.7 mg/dL. It also gave a GLOB (10 mg/kg-day) of 3.39 ± 0.19 g/dL, a GLUC (10 mg/kg-day) of 122.6 ± 10.8 mg/dL and an HCT (10 mg/kg-day) of 44.76±2.84%. The HGB (10 mg/kg-day) was 13.84 ± 0.78 g/dL, the “Kidney Weight” value (10 mg/kg-day) was 3.53 g and the “Kidney/Body Weight” value (10 mg/kg-day) was 0.69%. For the same molecule, the “Kidney/Brain Weight” value (10 mg/kg-day) was 170%, the “Liver Weight” value (10 mg/kg-day) was 21.12 g and the “Liver/Body Weight” value (10 mg/kg-day) was 4.16%. The “Liver/Brain Weight” value (10 mg/kg-day) was 1016%, the MPV (10 mg/kg-day) was 7.66 ± 0.42 fL and the PT (10 mg/kg-day) was 15.81 s. The RBC (10 mg/kg-day) was 8.118±0.277 M/µL, the “Total BW change” value (10 mg/kg-day) was 238.64 g and the “Total Food Consumed” value (10 mg/kg-day) was 2270 g.

— paper PMC12298827, “Subchronic Toxicities of Four Per- and Polyfluoroalkyl Substances (PFASs) by Oral Exposure in Sprague–Dawley Rats” (Toxics, 2025)
